{
  "source": "paper PMC9699072",
  "about": "(Molecules, 2022)",
  "key": {"[1]": {"test": "ABTS radical cation scavenging (decolorization) assay", "type": "biochemical", "details": "mean ± SEM, n = 3; for IC50: 1 h, read-out: ABTS IC50 (compound concentration required for 50% reduction of the ABTS radical-cation) (converted); for ABTS TEAC (Trolox equivalent antioxidant capacity): 1 h incubation, relative to Trolox", "description": "The ABTS assay is based on the direct quenching of the ABTS cation radical (ABTS^•+) by antioxidants. The assay is carried out by spectrophotometric determination of a decrease in absorbance of a stable dark green ABTS^•+ solution after its interaction with an antioxidant compound [56]. The measurements were performed as previously described in detail. The results are expressed as TEAC values (Trolox equivalent antioxidant capacity) and IC50 values (compound concentration required for 50% reduction of the ABTS radical).\nRadical scavenging activity of the compounds was assessed using the ABTS radical cation (ABTS^•+) decolorization assay with some modifications. ABTS (2,2′-azinobis-(3-ethylbenzothiazoline-6-sulfonic acid)) was purchased from Tokyo Chemical Industry Co., Ltd. (Tokyo, Japan), and potassium persulfate (dipotassium peroxodisulfate), Trolox (6-hydroxy-2,5,7,8-tetramethylchroman-2-carboxylic acid), and HPLC-grade ethanol and DMSO were obtained from Sigma-Aldrich (Saint Louis, MO, USA). Aqueous solutions were prepared using deionized water. All test compounds were dissolved in DMSO.\nThe solution of cation radical ABTS^•+ was produced by incubation of an aqueous solution of 7 mM ABTS and 2.45 mM potassium persulfate solution in equal quantities for 12–16 h at room temperature in the dark. Radical scavenging capacity of the compounds was analyzed by mixing 10 μL of compound with 240 μL of ABTS^•+ working solution in ethanol (100 μM final concentration). Data were given for 1 h of incubation of compounds with ABTS^•+. The reduction in absorbance was measured spectrophotometrically at 734 nm using an xMark microplate UV/VIS microplate spectrophotometer (Bio-Rad, Hercules, CA, USA).\nEthanol blanks were run in each assay. Values were obtained from three replicates of each sample and three independent experiments.\nStandard antioxidant Trolox was used as a reference compound. Antioxidant capacity as Trolox equivalent (TEAC) values was determined as the ratio between the slopes obtained from the linear correlation of the ABTS radical absorbance with the concentrations of tested compounds and Trolox. Quercetin was used as a positive control. For the test compounds that reduced ABTS^•+ absorbance by more than 60% at 100 µM, we also determined the IC50 values (the compound concentration required for a 50% reduction of the ABTS radical). The compounds were tested in the concentration range of 0.5–400 µM."}, "[2]": {"test": "ORAC-FL (oxygen radical absorbance capacity) assay", "type": "biochemical", "details": "mean ± SEM, n = 3, 2 h, 10 μM compound and Trolox", "description": "In the oxygen radical absorbance capacity (ORAC-FL) assay, 2,2′-azobis-(2-methylpropionamidine) dihydrochloride (AAPH) is used as a free peroxyl radical generator, and fluorescein (FL) is used as a fluorescent probe. The method is based on measuring the decrease in the intensity of fluorescence with time, which characterizes the degree of decay of the fluorescent probe under the influence of peroxyl radicals. In the presence of antioxidants, the degree of decay of the fluorescent probe decreases and, accordingly, the fluorescence intensity increases. The results are expressed as TE (Trolox equivalents).\nThe ORAC assay utilizes a biologically relevant radical source, 2,2′-azobis(2-amidinopropane) dihydrochloride (AAPH)-derived peroxyl radicals. Thus, it is a more physiologically relevant assay than ABTS and FRAP.\nThe oxygen radical absorbance capacity (ORAC) was determined by the ability of compounds to protect fluorescein (FL) from peroxyl radicals that are generated by AAPH according to the known method with minor variations. The reaction was carried out at 37 °C in black 96-well plates (SPL life sciences), and the final volume of the reaction mixture was 200 µL per well. The fluorescence was recorded by Tecan M1000 PRO microplate reader (Switzerland) at 485 nm excitation and 520 nm emission.\nThe 0.7 mM fluorescein sodium salt stock solution in PBS pH 7.4 (137 mM sodium chloride, 2.7 mM potassium chloride, and 10 mM phosphate buffer) was prepared and stored at 4–5 °C no longer than one month. An aliquot of the fluorescein stock solution was further diluted with PBS immediately before each assay to yield a 70 nM working solution. The 133 mM AAPH solution in PBS was prepared immediately before use. The test compounds and Trolox standard were dissolved in DMSO to 400 μM. The final concentration was 10 μM for all of the samples.\nThe blank was composed of 15 μL PBS pH 7.4, 5 μL DMSO (final concentration: 2.5% (v/v)), 120 μL FL, and 60 μL AAPH, and it was included in each assay. PBS pH 7.4 (15 μL), antioxidant (the test compound or Trolox, 5 μL), and FL (120 μL, final concentration: 42 nM) solutions were placed in a black 96-well microplate and were pre-incubated for 15 min at 37 °C. AAPH solution (60 μL, final concentration 40 mM) was then added rapidly using a multichannel pipette. The fluorescence was recorded every minute for 2 h. A Trolox standard curve was also obtained in each assay. All reactions were carried out in quadruplicate, and two to four independent assays were performed for each sample.\nAntioxidant curves (fluorescence vs. time) were first normalized to the curve of the blank (without antioxidant) corresponding to the same assay, and the net AUC corresponding to a sample was calculated by subtracting the AUC corresponding to the blank. The ORAC value was obtained by dividing the latter curve by the Trolox curve obtained in the same assay at 10 μM concentrations of compounds and Trolox. Final ORAC values, Trolox equivalents (TE), were expressed as μmol test compounds per μmol Trolox, where the value of TE for Trolox was taken as 1. Data were expressed as means ± SEM."}},
  "note": "Values joined by “and” are separate entries in the source; they are usually repeats but may differ in a detail not shown here. Identical values can stand only once. Counter-ions that a name gives are not always drawn.",
  "data": [
    {"molecule": "3-methyl-1-phenyl-2-pyrazolin-5-one [EDA, reference compound]", "values": [
      {"measurement": "IC50", "setting": "[1]", "result": 21.4, "unit": "µM"},
      {"measurement": "ABTS TEAC (Trolox equivalent antioxidant capacity)", "setting": "[1]", "result": "0.96 ± 0.04", "unit": "TEAC"},
      {"measurement": "ORAC-FL TE (Trolox equivalent)", "setting": "[2]", "result": "3.71 TE and 3.71 ± 0.06 TE"}
    ]},
    {"molecule": "O=C1NN=C(C(F)(F)F)/C1=N/O", "note": "[1e]", "values": [
      {"measurement": "ABTS TEAC (Trolox equivalent antioxidant capacity)", "setting": "[1]", "result": "0.23 ± 0.01 (n.d.) TEAC"},
      {"measurement": "ORAC-FL TE (Trolox equivalent)", "setting": "[2]", "result": "0.98 ± 0.03", "unit": "TE"}
    ]},
    {"molecule": "O=C1NN=C(C(F)(F)C(F)(F)F)/C1=N/O", "note": "[1g]", "values": [
      {"measurement": "ABTS TEAC (Trolox equivalent antioxidant capacity)", "setting": "[1]", "result": "0.13 ± 0.04 (n.d.) TEAC"},
      {"measurement": "ORAC-FL TE (Trolox equivalent)", "setting": "[2]", "result": "1.87 ± 0.04", "unit": "TE"}
    ]},
    {"molecule": "CC1=NNC(=O)/C1=N\\O", "note": "[1j]", "values": [
      {"measurement": "ABTS TEAC (Trolox equivalent antioxidant capacity)", "setting": "[1]", "result": "0.2 ± 0.03 (n.d.) TEAC"},
      {"measurement": "ORAC-FL TE (Trolox equivalent)", "setting": "[2]", "result": "2.85 ± 0.28", "unit": "TE"}
    ]},
    {"molecule": "Cl.Nc1c(C(F)(F)F)nn(-c2ccccc2)c1O", "note": "[4a, 4-Amino-3-(trifluoromethyl)-1-phenyl-1H-pyrazol-5-ol hydrochloride]", "values": [
      {"measurement": "IC50", "setting": "[1]", "result": 27.2, "unit": "µM"},
      {"measurement": "ABTS TEAC (Trolox equivalent antioxidant capacity)", "setting": "[1]", "result": "0.75 ± 0.04", "unit": "TEAC"},
      {"measurement": "ORAC-FL TE (Trolox equivalent)", "setting": "[2]", "result": "3.49 TE and 3.49 ± 0.16 TE"}
    ]},
    {"molecule": "Cl.Nc1c(C(F)(F)C(F)(F)F)nn(-c2ccccc2)c1O.O", "note": "[4b, 4-Amino-3-(pentafluoroethyl)-1-phenyl-1H-pyrazol-5-ol hydrate hydrochloride]", "values": [
      {"measurement": "IC50", "setting": "[1]", "result": 34.1, "unit": "µM"},
      {"measurement": "ABTS TEAC (Trolox equivalent antioxidant capacity)", "setting": "[1]", "result": "0.6 ± 0.03", "unit": "TEAC"},
      {"measurement": "ORAC-FL TE (Trolox equivalent)", "setting": "[2]", "result": "2.12 ± 0.17", "unit": "TE"}
    ]},
    {"molecule": "Nc1c(C(F)(F)C(F)(F)C(F)(F)C(F)(F)F)nn(-c2ccccc2)c1O", "note": "[4c, 5-Hydroxy-1-phenyl-3-(nonafluorobuthyl)-1H-pyrazol-4-ammonium hydrochloride]", "values": [
      {"measurement": "IC50", "setting": "[1]", "result": 23.4, "unit": "µM"},
      {"measurement": "ABTS TEAC (Trolox equivalent antioxidant capacity)", "setting": "[1]", "result": "0.85 ± 0.04", "unit": "TEAC"},
      {"measurement": "ORAC-FL TE (Trolox equivalent)", "setting": "[2]", "result": "2.82 ± 0.2", "unit": "TE"}
    ]},
    {"molecule": "Cc1nn(-c2ccccc2)c(O)c1N.Cl.O", "note": "[4d, 4-Amino-3-methyl-1-phenyl-1H-pyrazol-5-ol hydrochloride hydrate]", "values": [
      {"measurement": "IC50", "setting": "[1]", "result": 23.3, "unit": "µM"},
      {"measurement": "ABTS TEAC (Trolox equivalent antioxidant capacity)", "setting": "[1]", "result": "0.93 ± 0.03", "unit": "TEAC"},
      {"measurement": "ABTS TEAC (Trolox equivalent antioxidant capacity)", "setting": "[1]; listed as APH", "result": 0.93, "unit": "TEAC"},
      {"measurement": "ORAC-FL TE (Trolox equivalent)", "setting": "[2]", "result": "4.39 ± 0.04", "unit": "TE"},
      {"measurement": "ORAC-FL TE (Trolox equivalent)", "setting": "[2]; listed as APH", "result": 4.39, "unit": "TE"}
    ]},
    {"molecule": "Cl.Nc1c(C(F)(F)F)n[nH]c1O", "note": "[4e, 4-Amino-3-(trifluoromethyl)-1H-pyrazol-5-ol hydrochloride]", "values": [
      {"measurement": "IC50", "setting": "[1]", "result": 21.2, "unit": "µM"},
      {"measurement": "ABTS TEAC (Trolox equivalent antioxidant capacity)", "setting": "[1]", "result": "0.92 ± 0.04", "unit": "TEAC"},
      {"measurement": "ORAC-FL TE (Trolox equivalent)", "setting": "[2]", "result": "0.90 ± 0.19", "unit": "TE"}
    ]},
    {"molecule": "Cl.Nc1c(C(F)(F)C(F)(F)F)n[nH]c1O.O", "note": "[4g, 4-Amino-3-(pentafluoroethyl)-1H-pyrazol-5-ol hydrate hydrochloride]", "values": [
      {"measurement": "IC50", "setting": "[1]", "result": 25.7, "unit": "µM"},
      {"measurement": "ABTS TEAC (Trolox equivalent antioxidant capacity)", "setting": "[1]", "result": "0.73 ± 0.03", "unit": "TEAC"},
      {"measurement": "ORAC-FL TE (Trolox equivalent)", "setting": "[2]", "result": "0.54 ± 0.03", "unit": "TE"}
    ]},
    {"molecule": "Cl.Nc1c(C(F)(F)C(F)(F)C(F)(F)F)n[nH]c1O.O", "note": "[4h, 4-Amino-3-(heptafluoropropyl)-1H-pyrazol-5-ol hydrate hydrochloride]", "values": [
      {"measurement": "IC50", "setting": "[1]", "result": 24.8, "unit": "µM"},
      {"measurement": "ABTS TEAC (Trolox equivalent antioxidant capacity)", "setting": "[1]", "result": "0.78 ± 0.04", "unit": "TEAC"},
      {"measurement": "ORAC-FL TE (Trolox equivalent)", "setting": "[2]", "result": "0.63 ± 0.04", "unit": "TE"}
    ]},
    {"molecule": "Cl.Nc1c(C(F)(F)C(F)(F)C(F)(F)C(F)(F)F)n[nH]c1O.O", "note": "[4i, 4-Amino-3-(nonafluorobutyl)-1H-pyrazol-5-ol hydrate hydrochloride]", "values": [
      {"measurement": "IC50", "setting": "[1]", "result": 40.8, "unit": "µM"},
      {"measurement": "ABTS TEAC (Trolox equivalent antioxidant capacity)", "setting": "[1]", "result": "0.45 ± 0.02", "unit": "TEAC"},
      {"measurement": "ORAC-FL TE (Trolox equivalent)", "setting": "[2]", "result": "1.83 ± 0.02", "unit": "TE"}
    ]},
    {"molecule": "Cc1n[nH]c(O)c1N.Cl", "note": "[4j, 4-Amino-3-methyl-1H-pyrazol-5-ol hydrochloride]", "values": [
      {"measurement": "IC50", "setting": "[1]", "result": 20.1, "unit": "µM"},
      {"measurement": "ABTS TEAC (Trolox equivalent antioxidant capacity)", "setting": "[1]", "result": "0.95 ± 0.04", "unit": "TEAC"},
      {"measurement": "ORAC-FL TE (Trolox equivalent)", "setting": "[2]", "result": "2.06 ± 0.16", "unit": "TE"}
    ]},
    {"molecule": "Oc1cc(C(F)(F)F)nn1-c1ccccc1", "note": "[CF3-EDA, 3-trifluoromethyl-1-phenylpyrazol-5-ol, reference compound]", "values": [
      {"measurement": "IC50", "setting": "[1]", "result": 21.4, "unit": "µM"},
      {"measurement": "ABTS TEAC (Trolox equivalent antioxidant capacity)", "setting": "[1]", "result": "0.95 ± 0.04", "unit": "TEAC"},
      {"measurement": "ORAC-FL TE (Trolox equivalent)", "setting": "[2]", "result": "3.89 TE and 3.89 ± 0.04 TE"}
    ]}
  ]
}
